Source: ChEMBL document CHEMBL1201862, “PubChem BioAssay data set” (2004)
The source made the active and inactive calls.

Assays:
Exodeoxyribonuclease V = molecular target: T1, Exodeoxyribonuclease V (Escherichia coli (strain K12), UniProt P04993+P07648+P08394); assay: E. coli RecBCD inhibitors, dose response, counter-screen for AddAB inhibitor project, absorbance, V66 E. coli, mutant T4 phage (AID 492957); format: functional, cell-based, Escherichia coli str. K-12 substr. MG1655
T1 sequence (P04993 whole entry): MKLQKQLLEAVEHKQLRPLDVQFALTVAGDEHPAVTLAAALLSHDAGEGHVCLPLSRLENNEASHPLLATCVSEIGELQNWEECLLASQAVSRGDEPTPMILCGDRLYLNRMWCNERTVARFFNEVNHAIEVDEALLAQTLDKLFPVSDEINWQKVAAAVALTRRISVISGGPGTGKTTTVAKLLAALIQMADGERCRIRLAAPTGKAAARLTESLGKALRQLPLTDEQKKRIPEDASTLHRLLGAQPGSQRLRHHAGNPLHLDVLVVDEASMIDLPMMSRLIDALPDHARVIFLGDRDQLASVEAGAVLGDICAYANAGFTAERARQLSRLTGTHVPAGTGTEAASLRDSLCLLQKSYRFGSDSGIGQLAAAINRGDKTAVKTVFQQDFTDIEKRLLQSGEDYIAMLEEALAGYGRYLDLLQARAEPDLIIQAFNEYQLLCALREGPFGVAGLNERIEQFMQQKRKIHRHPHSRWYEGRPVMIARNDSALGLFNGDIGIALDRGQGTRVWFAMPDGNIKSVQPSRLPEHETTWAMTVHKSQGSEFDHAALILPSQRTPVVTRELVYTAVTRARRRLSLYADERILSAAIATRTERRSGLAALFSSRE
T1 sequence (P07648 whole entry): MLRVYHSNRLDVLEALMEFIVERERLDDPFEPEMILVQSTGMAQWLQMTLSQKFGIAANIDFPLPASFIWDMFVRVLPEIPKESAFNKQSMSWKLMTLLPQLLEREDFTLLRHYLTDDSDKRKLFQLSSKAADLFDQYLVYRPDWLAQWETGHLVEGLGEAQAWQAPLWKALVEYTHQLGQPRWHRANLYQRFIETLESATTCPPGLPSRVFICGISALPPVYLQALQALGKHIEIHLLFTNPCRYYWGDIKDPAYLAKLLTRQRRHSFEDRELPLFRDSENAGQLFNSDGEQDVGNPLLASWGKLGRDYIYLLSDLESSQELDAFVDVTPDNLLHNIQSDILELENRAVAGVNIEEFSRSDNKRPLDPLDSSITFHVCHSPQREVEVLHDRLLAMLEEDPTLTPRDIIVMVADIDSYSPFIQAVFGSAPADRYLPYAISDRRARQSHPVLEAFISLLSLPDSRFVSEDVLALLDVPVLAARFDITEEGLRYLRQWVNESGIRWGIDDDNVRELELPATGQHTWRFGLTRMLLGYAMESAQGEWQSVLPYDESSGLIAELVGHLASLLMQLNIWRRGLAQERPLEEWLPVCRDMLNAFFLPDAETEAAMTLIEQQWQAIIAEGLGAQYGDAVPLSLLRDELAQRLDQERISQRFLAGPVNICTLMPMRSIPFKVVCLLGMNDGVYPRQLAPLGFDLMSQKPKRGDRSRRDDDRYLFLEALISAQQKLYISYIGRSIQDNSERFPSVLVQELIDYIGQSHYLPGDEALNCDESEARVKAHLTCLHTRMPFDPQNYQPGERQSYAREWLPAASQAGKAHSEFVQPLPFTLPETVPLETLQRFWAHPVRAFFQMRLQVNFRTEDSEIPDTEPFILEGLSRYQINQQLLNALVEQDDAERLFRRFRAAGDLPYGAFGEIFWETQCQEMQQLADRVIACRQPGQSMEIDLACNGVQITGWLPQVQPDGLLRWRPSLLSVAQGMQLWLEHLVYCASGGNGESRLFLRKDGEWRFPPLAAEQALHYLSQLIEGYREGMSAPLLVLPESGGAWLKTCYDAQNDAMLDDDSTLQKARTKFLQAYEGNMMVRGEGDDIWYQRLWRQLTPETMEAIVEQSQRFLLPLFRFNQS
T1 sequence (P08394 whole entry): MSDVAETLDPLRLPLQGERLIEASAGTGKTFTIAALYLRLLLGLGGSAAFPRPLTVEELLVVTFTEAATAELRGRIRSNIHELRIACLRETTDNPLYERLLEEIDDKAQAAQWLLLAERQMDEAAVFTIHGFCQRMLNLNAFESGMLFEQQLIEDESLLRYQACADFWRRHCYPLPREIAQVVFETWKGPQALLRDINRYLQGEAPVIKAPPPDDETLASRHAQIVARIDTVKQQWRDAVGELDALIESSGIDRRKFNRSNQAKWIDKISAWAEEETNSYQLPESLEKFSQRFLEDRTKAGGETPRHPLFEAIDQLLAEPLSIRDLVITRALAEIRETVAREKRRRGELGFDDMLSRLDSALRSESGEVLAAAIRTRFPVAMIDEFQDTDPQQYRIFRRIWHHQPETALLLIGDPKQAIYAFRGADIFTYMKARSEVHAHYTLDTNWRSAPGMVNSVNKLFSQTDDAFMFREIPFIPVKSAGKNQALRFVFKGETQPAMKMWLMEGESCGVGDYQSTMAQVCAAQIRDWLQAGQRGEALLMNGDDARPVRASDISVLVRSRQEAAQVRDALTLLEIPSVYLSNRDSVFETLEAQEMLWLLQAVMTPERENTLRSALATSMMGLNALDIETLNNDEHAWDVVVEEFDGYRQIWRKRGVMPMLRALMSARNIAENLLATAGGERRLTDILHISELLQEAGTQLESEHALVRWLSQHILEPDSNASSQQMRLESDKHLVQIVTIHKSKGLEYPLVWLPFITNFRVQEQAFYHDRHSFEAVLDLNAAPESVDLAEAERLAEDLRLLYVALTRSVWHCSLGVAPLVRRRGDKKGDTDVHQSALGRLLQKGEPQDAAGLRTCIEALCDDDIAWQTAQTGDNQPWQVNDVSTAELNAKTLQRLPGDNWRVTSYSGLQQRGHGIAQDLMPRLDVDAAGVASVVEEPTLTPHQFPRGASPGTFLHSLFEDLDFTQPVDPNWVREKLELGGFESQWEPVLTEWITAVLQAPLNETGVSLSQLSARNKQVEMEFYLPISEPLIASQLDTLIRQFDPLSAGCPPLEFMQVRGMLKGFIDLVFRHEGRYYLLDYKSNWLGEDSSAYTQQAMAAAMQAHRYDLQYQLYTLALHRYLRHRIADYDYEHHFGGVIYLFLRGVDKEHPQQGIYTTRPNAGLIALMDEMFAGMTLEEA

[1] = Counterscreen for AddAB inhibitors: absorbance-based bacterial cell-based high throughput dose response assay for inhibitors of bacterial viability. [Related pubchem assays (depositor defined):AID435030, AID449728, AID449731, AID488942, AID488955, AID488956]; format: functional
[2] = test system: Streptococcus sp. 'group A'; assay: growth inhibition of control SK(-) GAS strain, dose response, counter-screen for streptokinase expression inhibitor project, luminescence, kanamycin, BacTiterGlo, confirmation (AID 1900); format: functional, organism-based
cells [3] = format: functional, cell-based
[4] = inhibitors of intracellular T. cruzi replication, confirmation, NIH3T3 host cells, beta-gal luminescence (AID 2044); format: functional, cell-based;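 further: intracellular parasites grown in NIH/3T3 mouse fibroblasts as host cells; luminescent beta-galactosidase reporter signal from transgenic T. cruzi replicating inside host cells; inhibitors lower the luminescence signal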
cells [5] = format: functional, cell-based; remark: listed apart in the source
[6] = cytotoxicity toward NIH3T3 fibroblasts, dose response, counter-screen, cell-based, ATP luminescence, mouse fibroblasts (AID 2010); format: functional;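 further: cells exposed to compound for about 90 hours before reading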
Streptococcus = assay: Group A Streptococcus viability loss, dose response, counter-screen for streptokinase expression inhibitor project, luminescence, BacTiterGlo (AID 1915); format: functional, organism-based;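 further: potency for reduction of bacterial viability or growth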
[7] = Luminescence Cell-Based Dose Retest to Confirm Inhibitors of Cancer Stem Cells. [Related pubchem assays (depositor defined):AID2717, AID2721]; format: functional; conditions: Homo sapiens
[8] = molecular target: Heat shock protein HSP 90-alpha (Homo sapiens, UniProt P07900); format: functional, organism-based
INS1 = assay: beta cell apoptosis inhibitors, cytokine rescue, dose response, luminescence, retest (AID 449756); format: functional, cell-based; conditions: Rattus norvegicus;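 further: cell death triggered by IL-1 beta plus TNF-alpha plus IFN-gamma mixture; protective hits raise ATP signal compared with cytokine alone wells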
HEK293 [9] = assay: NOD1 signaling inhibitors, primary screen, cell-based, luminescence, uHTS (AID 1578); format: functional; conditions: Homo sapiens
HEK293 [10] = assay: cells; format: functional, cell-based; conditions: Homo sapiens
HEK293 [11] = assay: cells; format: functional, cell-based; conditions: Homo sapiens; remark: listed apart in the source
[12] = molecular target: Nucleotide-binding oligomerization domain-containing protein 2 (Homo sapiens, UniProt Q9HC29); assay: NOD2 signaling inhibitors, cell-based, luminescence, uHTS, HEK293 (AID 1566); format: functional
Sequence of Nucleotide-binding oligomerization domain-containing protein 2 (Q9HC29 whole entry, the tested form may be a part): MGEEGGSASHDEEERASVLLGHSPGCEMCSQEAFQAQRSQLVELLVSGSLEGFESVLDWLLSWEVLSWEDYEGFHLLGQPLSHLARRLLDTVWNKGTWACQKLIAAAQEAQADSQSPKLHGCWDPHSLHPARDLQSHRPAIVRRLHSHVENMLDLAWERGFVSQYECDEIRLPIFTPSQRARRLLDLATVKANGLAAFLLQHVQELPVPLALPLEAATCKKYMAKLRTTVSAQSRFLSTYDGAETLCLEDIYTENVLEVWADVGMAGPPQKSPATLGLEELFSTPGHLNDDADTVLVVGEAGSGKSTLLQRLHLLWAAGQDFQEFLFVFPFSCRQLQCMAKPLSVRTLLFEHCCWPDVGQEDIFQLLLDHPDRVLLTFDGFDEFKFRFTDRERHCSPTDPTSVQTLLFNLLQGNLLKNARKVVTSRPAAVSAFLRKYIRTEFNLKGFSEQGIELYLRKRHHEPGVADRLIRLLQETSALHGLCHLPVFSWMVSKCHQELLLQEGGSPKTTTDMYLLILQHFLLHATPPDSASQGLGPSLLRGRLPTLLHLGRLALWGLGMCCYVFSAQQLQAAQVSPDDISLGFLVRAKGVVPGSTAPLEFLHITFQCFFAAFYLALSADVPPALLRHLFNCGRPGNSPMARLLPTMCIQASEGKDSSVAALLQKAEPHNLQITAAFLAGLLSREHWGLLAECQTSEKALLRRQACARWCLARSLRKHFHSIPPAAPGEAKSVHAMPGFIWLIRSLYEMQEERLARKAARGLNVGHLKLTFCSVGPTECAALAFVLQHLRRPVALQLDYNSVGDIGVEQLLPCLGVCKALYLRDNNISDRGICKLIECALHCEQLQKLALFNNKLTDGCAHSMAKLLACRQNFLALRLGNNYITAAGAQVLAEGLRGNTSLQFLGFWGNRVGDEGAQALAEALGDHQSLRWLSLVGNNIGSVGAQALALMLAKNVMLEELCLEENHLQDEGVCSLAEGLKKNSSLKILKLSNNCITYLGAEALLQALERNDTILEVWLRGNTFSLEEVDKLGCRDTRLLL

HEK293 [13] = assay: NOD2 signaling inhibitors in MDP-stimulated cells, cell-based, uHTS, luminescence (AID 2001); format: functional; conditions: Homo sapiens
HEK293 [14] = assay: cells; format: functional, cell-based; conditions: Homo sapiens; remark: listed apart in the source
[15] = molecular target: T2, Short transient receptor potential channel 4 (Mus musculus, UniProt Q9QUQ5); assay: mouse TRPC4 channel inhibitors, dose response, cell-based, HEK293 TRPC4/mu-opioid, Fluo-4 calcium (AID 434942); format: functional;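 further: potency of inhibitors blocking the TRPC4 calcium response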
T2 sequence (Q9QUQ5 whole entry): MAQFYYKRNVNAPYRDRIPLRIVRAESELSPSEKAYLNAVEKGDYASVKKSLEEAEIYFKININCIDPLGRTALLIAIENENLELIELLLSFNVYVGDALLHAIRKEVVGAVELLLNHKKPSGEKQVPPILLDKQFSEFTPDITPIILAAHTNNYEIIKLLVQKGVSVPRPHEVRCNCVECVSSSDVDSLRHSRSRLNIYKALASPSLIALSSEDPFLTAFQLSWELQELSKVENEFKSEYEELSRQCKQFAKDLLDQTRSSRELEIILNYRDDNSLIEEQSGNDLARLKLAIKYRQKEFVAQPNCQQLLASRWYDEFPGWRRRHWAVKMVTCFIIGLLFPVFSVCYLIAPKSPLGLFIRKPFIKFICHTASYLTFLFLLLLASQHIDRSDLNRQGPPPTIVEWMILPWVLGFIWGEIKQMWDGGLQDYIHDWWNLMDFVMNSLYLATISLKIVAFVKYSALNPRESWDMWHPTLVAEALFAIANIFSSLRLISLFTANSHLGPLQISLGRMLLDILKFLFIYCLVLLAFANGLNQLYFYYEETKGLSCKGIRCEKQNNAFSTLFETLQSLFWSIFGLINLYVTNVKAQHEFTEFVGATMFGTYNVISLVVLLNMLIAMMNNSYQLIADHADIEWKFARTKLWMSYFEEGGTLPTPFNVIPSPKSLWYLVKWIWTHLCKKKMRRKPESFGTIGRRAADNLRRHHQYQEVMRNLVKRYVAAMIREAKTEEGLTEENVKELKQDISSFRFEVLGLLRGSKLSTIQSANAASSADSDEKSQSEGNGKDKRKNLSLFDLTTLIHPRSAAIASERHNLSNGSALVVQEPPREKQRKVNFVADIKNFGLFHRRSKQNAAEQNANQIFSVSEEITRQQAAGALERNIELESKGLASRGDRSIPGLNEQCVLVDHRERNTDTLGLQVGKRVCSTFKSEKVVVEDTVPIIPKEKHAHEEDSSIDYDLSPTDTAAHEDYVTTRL

[16] = molecular target: T3, Carboxy-terminal domain RNA polymerase II polypeptide A small phosphatase 1 (Homo sapiens, UniProt Q9GZU7); assay: inhibitors of CTDSP1, concentration-response testing, biochemical assay, absorbance-based, actives from ultra-high-throughput screening (AID 540297); format: functional
T3 sequence (Q9GZU7 whole entry): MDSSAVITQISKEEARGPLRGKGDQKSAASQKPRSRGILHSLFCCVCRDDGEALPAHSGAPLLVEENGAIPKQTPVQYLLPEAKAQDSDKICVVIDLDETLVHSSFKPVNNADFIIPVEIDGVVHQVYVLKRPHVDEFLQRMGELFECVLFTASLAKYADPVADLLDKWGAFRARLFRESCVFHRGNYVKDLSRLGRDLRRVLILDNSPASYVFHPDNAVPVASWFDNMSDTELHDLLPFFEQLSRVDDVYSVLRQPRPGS

Row | Structure (SMILES) | IC50 (Exodeoxyribonuclease V) | IC50 [1] | EC50 (HEK293 [9]) | IC50 (HEK293 [10]) | IC50 (HEK293 [11]) | EC50 [12] | IC50 (HEK293 [13]) | IC50 (HEK293 [14]) | also measured
1 | CSc1nc(N)nc2c1ncn2CC(=O)Nc1ccc(C)c(C)c1 | > 118 µM (inactive) | > 118 µM (inactive) |  |  |  |  |  |  | 
2 | CCCC(=O)NC(c1ccc2c(c1)OCO2)c1cc(Cl)c2cccnc2c1O (centres undefined) | > 119 µM (inactive) | > 119 µM (inactive) |  |  |  |  |  |  | EC50 [2]: 4.09 µM (active); EC50 (cells [3]): 47.7 µM (active); EC50 [4]: 0.912 µM (active); EC50 (cells [5]): > 350 µM (not active); EC50 [6]: 2.21 µM (active); EC50 (Streptococcus): 7.69 µM (active); AC50 [7]: 3.06 µM (active); AC50 [8]: 3.41 µM (active); AC50 (INS1): 1.03 µM (active)
3 | Cc1c(Cl)cccc1N=C(S)NCc1ccccc1Cl | > 119 µM (inactive) | > 119 µM (inactive) |  |  |  |  |  |  | 
4 | Cc1nc(N2CCN(c3ccccn3)CC2)c2c(C)c(C(=O)N3CCN(c4ccccc4F)CC3)sc2n1 |  |  | 6.4 µM (active) | 6.62 µM (active) | > 20 µM (inactive) | 5.07 µM (active) | 7.16 µM (inactive) | 11 µM (active) | EC50 [15]: 1.68 µM (active)
5 | CCS(=O)(=O)C1=NN2C(=N)/C(=C\c3ccc(OCCOc4cccc(OC)c4)c(OC)c3)C(=O)N=C2S1 |  |  | > 20 µM (inactive) | > 20 µM (inactive) | > 20 µM (inactive) | 3.32 µM (active) | > 20 µM (inactive) | > 20 µM (inactive) | IC50 [16]: 4.26 µM (active)
